{"source": "patent US20240210394A1", "about": "“MICROORGANISM CAPTURE FROM ANTIMICROBIAL-CONTAINING SOLUTION” (MOMENTUM BIOSCIENCE LIMITED, priority 2019, published 2024)", "key": {"S. aureus [1]": {"test_system": "S. aureus", "experiment": "Blood culture time to positivity (flip time), bead rescue vs no-rescue control", "assay_type": "cell-based", "conditions": "for Flip time: Bead rescue; for Flip time in hours/mins: 2 h at 37° C.; for Time to positivity in days: 900 cfu/5 ml", "description": "An overnight culture of test organism was prepared in blood/broth medium (50:50 blood:broth medium from a BioMerieux SA culture bottle).\nTen-fold serial dilutions of overnight culture was prepared in blood/broth as required.\nAntibiotic (abx) was added to whole human blood (in citrate-phosphate-dextrose, CPD, an anticoagulant) at required level.\nWhole blood was used as the no-antibiotic control.\n(§1) Test dilution(s) of organism was added to blood+antibiotic or blood only at 10 μL per mL of blood (sufficient prepared for experiment requirements). 100 μL plate count sample was taken (TO sample).\n(§2) The inoculated samples were incubated at 37° C. (static) for 2-hour. 100 μL plate count sample was taken (T2 sample).\nFor the control, 5 mL of spiked blood+abx or blood only was added to blood culture bottles (BioMerieux SA culture bottle) using a vial adapter (West Pharmaceutical Services, Inc. PA, US) and incubated in the automated blood culture cabinet (adapter removed).\n(§3) For the ‘rescue’ test, 5 mL of spiked blood+abx or blood only was treated with Momentum Capture Beads (Streptavidin-coated, −300 nm beads, Bio estapor, Merk Cat #BE-M 08/0.3) as below: • Momentum Capture Beads diluted in Detergent-free Microbial Binding Buffer (DMBB—Tris+NaCl)—50 μL beads:700 μL DMBB per clean-up • 750 μL of diluted beads added to 50 mL conical centrifuge tube • 5 mL of broth medium added to tube • 5 mL of spiked blood+abx or blood only added to tube • Incubate on ITL TherMix (Integrated Technologies Ltd. Kent, UK), 32.5° C./30 min/1000 rpm—ramped speed protocol • Magnetise on V&P magnet (V&P scientific Inc, CA, US) for 5 min then remove supernatant • Resuspend beads in 1 mL Detergent-free Wash Buffer (DWB—Tris+NaCl) off magnet and transfer to 2 mL Eppendorf flip-top tube on DynaMag-2 magnet (Thermo Fisher Scientific, Life Technologies Ltd. Paisley, UK) • Magnetise for 5 min then remove supernatant • Resuspend beads in 1 mL DWB off magnet then replace on DynaMag-2 magnet • Magnetise for 5 min then remove supernatant • Resuspend beads in 1 mL DWB, add to a fresh, unused blood culture bottle (BioMerieux SA culture bottle) containing standard blood culture growth medium using a vial adapter, and start incubation (adapter removed). • Blood culture bottles are incubated in the automated blood culture cabinet (BacT/ALERT BioMerieux) which records time to positivity. The “Flip” time is when a bottle turns positive as determined by the automated blood culture cabinet. • “Flip” time of each bottle is recorded. • Plate counts (Total Viable Count TVC) are recorded.\nDay 1: Prepare overnight culture of test organism in blood/broth medium (50:50 blood:broth) and incubate at 37° C. in a shaking incubator.\n(§4) Day 2: Prepare ten-fold serial dilution of overnight culture in blood/broth as required • Antibiotic added to whole blood (defibrinated horse blood) at required level • Whole blood as no-antibiotic control • Test dilution(s) of organism added to blood+antibiotic or blood only at 10 μL per mL of blood (sufficient prepared for experiment requirements) • 100 μL plate count sample taken (TO sample) • 2-hour incubation at 37° C. (static), to mimic organism exposure to antimicrobials in the patient • 100 μL plate count sample taken (T2 sample) • 5 mL of spiked blood+abx or blood only added to blood culture bottle (using vial adapter) and incubation started (adapter removed) • 5 mL of spiked blood+abx or blood only (from same source) treated with Momentum Capture Beads as below: • 1. Momentum Capture Beads diluted in Detergent-free Microbial Binding Buffer (DMBB)—50 μL beads:700 μL DMBB per clean-up • 2. 750 μL of diluted beads added to 50 mL conical centrifuge tube • 3. 5 mL of transfer medium added to tube • 4. 5 mL of spiked blood+abx or blood only added to tube • 5."}, "S. aureus [2]": {"test_system": "S. aureus", "experiment": "Total viable count (TVC) plate counts of spiked samples (T0/T2)", "assay_type": "cell-based", "conditions": "for TVC T2: 100 μL plated after 2 h at 37° C.; for TVC T0: 100 μL plated at time 0", "description": "as §1, §2, §3\nas §4, with “Momentum Capture Beads diluted in Detergent-free Microbial Binding Buffer (DMBB)—50 μL beads:700 μL DMBB per clean-up • 2. 750 μL of diluted beads added to 50 mL conical centrifuge tube • 3. 5 mL of transfer medium added to tube • 4. 5 mL of spiked blood+abx or blood only added to tube • 5.” left out\nDay 3: Plate counts recorded. […]"}, "[3]": {"conditions": "S. aureus spike dil 10-3 in blood + Piperacillin 96 ug/ml"}, "[4]": {"conditions": "S. aureus spike dil 10-4 in blood + Piperacillin 96 ug/ml"}}}
{"compound": "CCN1CCN(C(=O)N[C@@H](C(=O)N[C@@H]2C(=O)N3[C@@H]2SC(C)(C)[C@@H]3C(=O)O)c2ccccc2)C(=O)C1=O", "note": "[Piperacillin]", "values": [{"measurement": "Flip time", "setting": "S. aureus [1]; Piperacillin 96 ug/mL blood, CPD human blood, 750 cfu/5 mL", "value": 0.62, "unit": "days"}, {"measurement": "Flip time", "setting": "S. aureus [1]; Piperacillin 96 ug/mL blood, CPD human blood, 5000 cfu/5 mL", "value": 0.57, "unit": "days"}, {"measurement": "Flip time", "setting": "S. aureus [1]; Piperacillin 96 ug/mL blood, defibrinated horse blood, 5000 cfu/5 ml", "value": 0.78, "unit": "days"}, {"measurement": "Flip time", "setting": "S. aureus [1]; Piperacillin 96 ug/mL blood, defibrinated horse blood, 50000 cfu/5 ml", "value": 0.65, "unit": "days"}, {"measurement": "Flip time", "setting": "S. aureus [1]; S. aureus spike dil 10-3, Piperacillin 96 ug/ml human blood, SA bottle", "value": 0.57, "unit": "days"}, {"measurement": "Flip time", "setting": "S. aureus [1]; S. aureus spike dil 10-4, Piperacillin 96 ug/ml human blood, SA bottle", "value": 0.62, "unit": "days"}, {"measurement": "Flip time in Days", "setting": "S. aureus [1]; Control (no bead rescue), Piperacillin 96 ug/mL blood, CPD human blood, 750 cfu/5 mL", "value": "Neg"}, {"measurement": "Flip time in Days", "setting": "S. aureus [1]; Control (no bead rescue), Piperacillin 96 ug/mL blood, CPD human blood, 5000 cfu/5 mL", "value": "Neg"}, {"measurement": "Flip time in Days", "setting": "S. aureus [1]; Control (no bead rescue), Piperacillin 96 ug/mL blood, defibrinated horse blood, 5000 cfu/5 ml", "value": "Neg"}, {"measurement": "Flip time in Days", "setting": "S. aureus [1]; Control (no bead rescue), Piperacillin 96 ug/mL blood, defibrinated horse blood, 50000 cfu/5 ml", "value": "Neg"}, {"measurement": "Flip time in hours/mins", "setting": "S. aureus [1]; Control (no bead rescue), S. aureus spike dil 10-3, Piperacillin 96 ug/ml human blood, SA bottle", "value": "Negative at 120 h"}, {"measurement": "Flip time in hours/mins", "setting": "S. aureus [1]; Control (no bead rescue), S. aureus spike dil 10-4, Piperacillin 96 ug/ml human blood, SA bottle", "value": "Negative at 120 h"}, {"measurement": "Flip time in Days", "setting": "S. aureus [1]; No bead rescue Control BC, Piperacillin 96 ug/mL blood, 10000 cfu/5 mL", "value": "Neg"}, {"measurement": "Flip time in Days", "setting": "S. aureus [1]; No bead rescue Control BC, Piperacillin 96 ug/mL blood, 50000 cfu/5 mL", "value": "Neg"}, {"measurement": "Time to positivity in days", "setting": "S. aureus [1]; Piperacillin 96 ug/mL blood, Control (no beads)", "value": "Neg"}, {"measurement": "Time to positivity in days", "setting": "S. aureus [1]; Piperacillin 96 ug/mL blood, with magnetic beads in the bottle", "value": "Neg"}, {"measurement": "TVC T2", "setting": "S. aureus [2]; [3]", "value": 2}, {"measurement": "TVC T0", "setting": "S. aureus [2]; [3]", "value": 98}, {"measurement": "TVC T2", "setting": "S. aureus [2]; [4]", "value": 0}, {"measurement": "TVC T0", "setting": "S. aureus [2]; [4]", "value": 15}]}
